The IC50 is the concentration that gives 50% inhibition.

25 compounds from US9765092B2, “Tricyclic piperidine compounds” (ACTELION PHARMACEUTICALS LTD, priority 2013, dated 2017) can be followed below.

For the test, the target named is human TPH1 (Homo sapiens (Human), UniProt P17752). As to the kind of experiment: Biochemical in vitro assay using fluorescence readout (TPH1 inhibition).
Where [1] appears, read: human TPH1, fluorescence readout.
Where [2] appears, read: full length human TPH1, 40 μM L-tryptophan, 15° C., 60 minutes, fluorescence at 540 nm, mean if determined several times.

The structures appear in SMILES notation.

Chain of human TPH1 (P17752 whole entry): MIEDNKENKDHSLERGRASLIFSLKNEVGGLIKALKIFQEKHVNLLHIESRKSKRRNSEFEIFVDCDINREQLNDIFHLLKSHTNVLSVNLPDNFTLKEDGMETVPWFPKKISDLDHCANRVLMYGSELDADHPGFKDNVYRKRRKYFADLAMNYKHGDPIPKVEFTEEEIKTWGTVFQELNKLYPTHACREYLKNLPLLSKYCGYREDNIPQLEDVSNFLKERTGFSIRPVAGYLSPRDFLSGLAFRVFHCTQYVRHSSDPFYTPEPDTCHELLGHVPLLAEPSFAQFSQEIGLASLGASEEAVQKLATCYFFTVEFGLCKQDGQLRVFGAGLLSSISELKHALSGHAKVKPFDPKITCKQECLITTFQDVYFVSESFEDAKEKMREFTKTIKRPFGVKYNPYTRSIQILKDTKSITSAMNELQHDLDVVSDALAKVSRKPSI

`Cc1nn2c3c(nc2s1)CCN(C(=O)COc1ccc(C(=O)N(C)C)nc1Cl)C3c1cc(F)ccc1F` (stereo not shown) [Example 1.57.1, 6-chloro-5-(2-(5-(2,5-difluorophenyl)-2-methyl-7,8-dihydro-[1,3,4]thiadiazolo[2′,3′:2,3]imidazo[4,5-c]pyridine-6(5H)-yl)-2-oxoethoxy)-N,N-dimethylpicolinamide]: the IC50 under setting [1] worked out at 30 nM.

As to `Cc1cc(Cl)ccc1OCC(=O)N1CCc2nc3sccn3c2C1c1ccc(Cl)cc1F` (stereo not shown) [Example 6.4.3, 1-(5-(4-chloro-2-fluorophenyl)-7,8-dihydrothiazolo-[2′,3′:2,3]imidazo[4,5-c]pyridin-6(5H)-yl)-2-(4-chloro-2-methylphenoxy)ethanone], the IC50 under setting [1] came out at 6 nM.

For `O=C(COc1ccc(CN2CCOCC2)cc1Cl)N1CCc2nc3sccn3c2C1c1cccnc1F` (stereo not shown) [Example 6.2.1, 2-(2-chloro-4-(morpholinomethyl)phenoxy)-1-(5-(2-fluoropyridin-3-yl)-7,8-dihydrothiazolo[2′,3′:2,3]imidazo[4,5-c]pyridin-6(5H)-yl)ethanone], the IC50 under setting [1] came to 12 nM.

`Cc1cc(Cl)ccc1OCC(=O)N1CCc2nc3sccn3c2C1c1cnn(-c2ccccc2)c1` (stereo not shown) [Example 6.13.7, 2-(4-chloro-2-methylphenoxy)-1-(5-(1-phenyl-1H-pyrazol-4-yl)-7,8-dihydrothiazolo[2′,3′:2,3]imidazo[4,5-c]pyridin-6(5H)-yl)ethanone]: the IC50 under setting [1] was determined as 26 nM.

Turning to `CCc1nc(C)ccc1OCC(=O)N1CCc2nc3sccn3c2C1c1ccc(C(F)(F)F)cc1F` (stereo not shown) [Example 6.11.1, 2-((2-ethyl-6-methylpyridin-3-yl)oxy)-1-(5-(2-fluoro-4-(trifluoromethyl)phenyl)-7,8-dihydrothiazolo-[2′,3′:2,3]imidazo[4,5-c]pyridin-6(5H)-yl)ethanone], inhibition under setting [1] was half-maximal at 10 nM (IC50).

In turn, `Cc1nn2c3c(nc2s1)CCN(C(=O)COc1ccc(NS(C)(=O)=O)nc1Cl)C3c1ccc(C(C)(C)O)cc1F` (stereo not shown) [Example 1.80.1, N-(6-chloro-5-(2-(5-(2-fluoro-4-(2-hydroxypropan-2-yl)phenyl)-2-methyl-7,8-dihydro-[1,3,4]thiadiazolo[2′,3′:2,3]imidazo[4,5-c]pyridin-6(5H)-yl)-2-oxoethoxy)pyridin-2-yl)methanesulfonamide] registered an IC50 under setting [1] of 98 nM.

Turning to `N#Cc1ccc(OCC(=O)N2CCc3nc4scnn4c3C2c2ccc(Cl)cc2F)c(Cl)c1` (stereo not shown) [Example 2.1.2, 3-chloro-4-(2-(5-(4-chloro-2-fluorophenyl)-7,8-dihydro-[1,3,4]thiadiazolo[2′,3′:2,3]imidazo[4,5-c]pyridin-6(5H)-yl)-2-oxoethoxy)benzonitrile], the IC50 under setting [1] was 31 nM.

In the case of `Cc1ccc(OCC(=O)N2CCc3nc4sccn4c3C2c2cccnc2F)cc1` (stereo not shown) [Example 6.2.3, 1-(5-(2-fluoropyridin-3-yl)-7,8-dihydrothiazolo[2′,3′:2,3]-imidazo[4,5-c]pyridin-6(5H)-yl)-2-(p-tolyloxy)ethanone], the IC50 under setting [1] is 52 nM.

Compound `Cc1nn2c3c(nc2s1)CCN(C(=O)COc1ccc(C(=O)N(C)C)nc1Cl)C3c1ccc(C)c(F)c1F` (stereo not shown) [Example 1.61.1, 6-chloro-5-(2-(5-(2,3-difluoro-4-methylphenyl)-2-methyl-7,8-dihydro-[1,3,4]thiadiazolo[2′,3′:2,3]imidazo[4,5-c]pyridin-6(5H)-yl)-2-oxoethoxy)-N,N-dimethylpicolinamide] returned an IC50 under setting [1] of 7 nM.

`Cc1nn2c3c(nc2s1)CCN(C(=O)COc1ccc(C(=O)N(C)C)nc1Cl)C3c1cnc(C(=O)N(C)C)s1` (stereo not shown) [Example 1.34.2, 5-(6-(2-((2-chloro-6-(dimethylcarbamoyl)pyridin-3-yl)oxy)acetyl)-2-methyl-5,6,7,8-tetrahydro-[1,3,4]thiadiazolo [2′,3′:2,3]imidazo[4,5-c]pyridin-5-yl)-N,N-dimethylthiazole-2-carboxamide] displayed an IC50 under setting [1] of 9 nM.

Consider `Cc1nn2c3c(nc2s1)CCN(C(=O)COc1cnc(C(F)(F)F)nc1Cl)C3c1ccc(Cl)cc1F` (stereo not shown) [Example 1.4.36, 2-((4-chloro-2-(trifluoromethyl)pyrimidin-5-yl)oxy)-1-(5-(4-chloro-2-fluorophenyl)-2-methyl-7,8-dihydro-[1,3,4]thiadiazolo[2′,3′:2,3]imidazo[4,5-c]pyridin-6(5H)-yl)ethanone], for which the IC50 under setting [1] stood at 38 nM.

Turning to `COCc1ccc(C2c3c(nc4sc(C)nn34)CCN2C(=O)COc2ccc(C(=O)NC3CC3)nc2Cl)c(F)c1` (stereo not shown) [Example 1.82.2, 6-chloro-N-cyclopropyl-5-(2-(5-(2-fluoro-4-(methoxymethyl)phenyl)-2-methyl-7,8-dihydro-[1,3,4]thiadiazolo[2′,3′:2,3]imidazo[4,5-c]pyridin-6(5H)-yl)-2-oxoethoxy)picolinamide], it took 14 nM to reach half-maximal inhibition under setting [1] (IC50).

`Cc1nn2c3c(nc2s1)CCN(C(=O)COc1ccc(N2CC(F)(F)C2)nc1Cl)C3c1ncc(C(=O)N(C)C)s1` (stereo not shown) [Example 1.37.2, 2-(6-(2-((2-Chloro-6-(3,3-difluoroazetidin-1-yl)pyridin-3-yl)oxy)acetyl)-2-methyl-5,6,7,8-tetrahydro-[1,3,4]thiadiazolo[2′,3′:2,3]imidazo[4,5-c]pyridin-5-yl)-N,N-dimethylthiazole-5-carboxamide]: the IC50 under setting [2] was 51 nM.

Compound `O=C(COc1ccc(CN2CCOCC2)cc1Cl)N1CCc2nc3sccn3c2C1c1cnn(-c2ccccc2)c1` (stereo not shown) [Example 6.13.5, 2-(2-chloro-4-(morpholinomethyl)phenoxy)-1-(5-(1-phenyl-1H-pyrazol-4-yl)-7,8-dihydrothiazolo-[2′,3′:2,3]imidazo[4,5-c]pyridin-6(5H)-yl)ethanone] gave an IC50 under setting [1] of 7 nM.

Compound `Cc1cnc(C2c3c(nc4sc(C)nn34)CCN2C(=O)COc2ccc(C(=O)N(C)C)nc2Cl)c(F)c1` (stereo not shown) [Example 1.31.7, 6-chloro-5-(2-(5-(3-fluoro-5-methylpyridin-2-yl)-2-methyl-7,8-dihydro-[1,3,4]thiadiazolo[2′,3′:2,3]imidazo[4,5-c]pyridin-6(5H)-yl)-2-oxoethoxy)-N,N-dimethylpicolinamide] came in with an IC50 under setting [1] of 6 nM.

Compound `Cc1nn2c3c(nc2s1)CCN(C(=O)COc1ccc(C(=O)N(C)C)nc1Cl)C3c1sc(C(=O)N(C)C)cc1F` (stereo not shown) [Example 1.24.7, 6-chloro-5-(2-(5-(5-(dimethylcarbamoyl)-3-fluorothiophen-2-yl)-2-methyl-7,8-dihydro-[1,3,4]thiadiazolo[2′,3′:2,3]imidazo[4,5-c]pyridin-6(5H)-yl)-2-oxoethoxy)-N,N-dimethylpicolinamide] had an IC50 under setting [1] of 5 nM.

`Cc1cnc(C2c3c(nc4sc(C)nn34)CCN2C(=O)COc2ccc(C(F)(F)F)nc2Cl)c(F)c1` (stereo not shown) [Example 1.31.5, 2-((2-chloro-6-(trifluoromethyl)pyridin-3-yl)oxy)-1-(5-(3-fluoro-5-methylpyridin-2-yl)-2-methyl-7,8-dihydro-[1,3,4]thiadiazolo[2′,3′:2,3]imidazo[4,5-c]pyridin-6(5H)-yl)ethanone] returned an IC50 under setting [1] of 21 nM.

`CNC(=O)c1ccc(OCC(=O)N2CCc3nc4sc(C)nn4c3C2c2ncc(C)cc2F)c(Cl)n1` (stereo not shown) [Example 1.31.6, 6-chloro-5-(2-(5-(3-fluoro-5-methylpyridin-2-yl)-2-methyl-7,8-dihydro-[1,3,4]thiadiazolo[2′,3′:2,3]imidazo[4,5-c]pyridin-6(5H)-yl)-2-oxoethoxy)-N-methylpicolinamide] returned an IC50 under setting [1] of 7 nM.

As for `Cc1nn2c3c(nc2s1)CCN(C(=O)COc1ccc(N2CCOCC2)nc1Cl)C3c1cnc(N(C)C)s1` (stereo not shown) [Example 1.22.1, 2-((2-Chloro-6-morpholinopyridin-3-yl)oxy)-1-(5-(2-(dimethylamino)-thiazol-5-yl)-2-methyl-7,8-dihydro[1,3,4]thiadiazolo[2′,3′:2,3]imidazo[4,5-c]pyridin-6(5H)-yl)ethanone], the IC50 under setting [2] is 7 nM.

Regarding `Cc1nn2c3c(nc2s1)CCN(C(=O)COc1ccc(N(C)C)nc1Cl)C3c1cnc(OC(F)F)cc1C` (stereo not shown) [Example 1.15.1, 2-((2-chloro-6-(dimethylamino)pyridin-3-yl)oxy)-1-(5-(6-(difluoromethoxy)-4-methylpyridin-3-yl)-2-methyl-7,8-dihydro-[1,3,4]thiadiazolo[2′,3′:2,3]imidazo[4,5-c]pyridin-6(5H)-yl)ethanone], under setting [1], the IC50 was 58 nM.

In the case of `Cc1nn2c3c(nc2s1)CCN(C(=O)COc1ccc(N2CCOCC2)nc1Cl)C3c1coc(-c2ccccc2)n1` (stereo not shown) [Example 1.12.1, 2-((2-chloro-6-morpholinopyridin-3-yl)oxy)-1-(2-methyl-5-(2-phenyloxazol-4-yl)-7,8-dihydro-[1,3,4]thiadiazolo [2′,3′:2,3]imidazo[4,5-c]pyridin-6(5H)-yl)ethanone], the IC50 under setting [1] is 14 nM.

As to `CNC(=O)c1ccc(OCC(=O)N2CCc3nc4sc(C)nn4c3C2c2ncccc2F)c(Cl)n1` (stereo not shown) [Example 1.35.3, 6-chloro-5-(2-(5-(3-fluoropyridin-2-yl)-2-methyl-7,8-dihydro-[1,3,4]thiadiazolo[2′,3′:2,3]imidazo[4,5-c]pyridin-6(5H)-yl)-2-oxoethoxy)-N-methylpicolinamide], half-maximal inhibition under setting [1] (IC50) was put at 29 nM.

For `CNC(=O)c1cc(F)c(C2c3c(nc4sc(C)nn34)CCN2C(=O)COc2ccc(C(F)(F)F)nc2Cl)s1` (stereo not shown) [Example 1.25.3, 5-(6-(2-((2-chloro-6-(trifluoromethyl)pyridin-3-yl)oxy)acetyl)-2-methyl-5,6,7,8-tetrahydro-[1,3,4]thiadiazolo [2′,3′:2,3]imidazo[4,5-c]pyridin-5-yl)-4-fluoro-N-methylthiophene-2-carboxamide], the IC50 under setting [1] was 35 nM.

On to `Cc1nn2c3c(nc2s1)CCN(C(=O)COc1ccc(C(F)(F)F)nc1Cl)C3c1ncc(C2CC2)cc1F` (stereo not shown) [Example 1.14.3, 2-((2-chloro-6-(trifluoromethyl)pyridin-3-yl)oxy)-1-(5-(5-cyclopropyl-3-fluoropyridin-2-yl)-2-methyl-7,8-dihydro-[1,3,4]thiadiazolo[2′,3′:2,3]imidazo[4,5-c]pyridin-6(5H)-yl)ethanone], for which half-maximal inhibition under setting [1] (IC50) was put at 17 nM.

`CCc1nc(NS(C)(=O)=O)ncc1OCC(=O)N1CCc2nc3sc(C)nn3c2[C@@H]1c1ncc(C)cc1F` [Example 1.31.19, (R)-N-(4-ethyl-5-(2-(5-(3-fluoro-5-methylpyridin-2-yl)-2-methyl-7,8-dihydro-[1,3,4]thiadiazolo[2′,3′:2,3]imidazo[4,5-c]pyridin-6(5H)-yl)-2-oxoethoxy)pyrimidin-2-yl)methanesulfonamide] showed an IC50 under setting [1] of 51 nM.
